Assay results: PMC12474366, “Metabolic Profiling, Tissue Distribution, and Tolerance Assessment of Bopu Powder in Laying Hens Following Long-Term Dietary Administration” (Veterinary Sciences, 2025)
“And” between values parts separate entries of the source, which are not always exact repeats. Identical values can stand only once. Like-named read-outs stand apart in the source and are kept apart here.

Experiments:
[1] = design: method as in doi:10.19378/j.issn.1003-9783.2020.12.010; details: rats, oral administration of ALL; cited from earlier work
[2] = design: method as in PMID 39805195; details: broiler hepatic microsomes, stable isotope tracing; cited from earlier work
[3] = cited from earlier work
[4] = cited from earlier work; remark: listed apart in the source
[5] = rat liver S9 fractions; cited from earlier work
[6] = porcine liver S9 fractions; cited from earlier work
[7] = Metabolite identification in plasma and feces after intravenous PRO or ALL (LC-Q-TOF-MS)
Procedure: (§1) Nine hens were allocated to the metabolic study. These birds were randomly divided into three groups (n = 3 per group): the blank control group, the PRO group, and the ALL group.
(§2) Plasma: Blood samples were collected from the subcutaneous ulnar vein at 5, 10, 20, 30, 60, and 120 min post-administration. Samples were centrifuged at 4 °C and 3200× g for 10 min. The supernatant (plasma) was collected and stored at −80 °C for subsequent metabolite analysis.
(§3) Feces: Feces were collected over the intervals 0–6 h, 6–12 h, 12–24 h, and 24–48 h following intravenous administration. All fecal samples were immediately stored at −80 °C.
(§4) Plasma: Plasma samples stored at −80 °C were thawed at room temperature. A pooled plasma sample was prepared by combining equal volumes of plasma from each designated collection timepoint. A 200 μL aliquot of this pooled plasma was precisely transferred into a 1.5 mL microcentrifuge tube. Subsequently, 800 μL of acetonitrile was added to precipitate proteins, and the mixture was vortex-mixed vigorously for 2 min. Following protein precipitation, the tube was sealed and sonicated for 20 min. The sample was then centrifuged at 12,000× g for 10 min. The resulting supernatant was carefully collected and evaporated to dryness under a gentle stream of nitrogen at room temperature. The dried residue was reconstituted in 200 μL of acetonitrile, vortex-mixed for 2 min, and centrifuged again at 12,000× g for 5 min. Finally, the supernatant was filtered through a 0.22 μm organic membrane filter prior to LC-MS/MS analysis.
(§5) Feces: Fecal samples stored at −80 °C were thawed at room temperature and homogenized. A 2.00 g aliquot of the homogenized feces was accurately weighed into a 50 mL centrifuge tube. Ten milliliters of acetonitrile, serving as the extraction solvent, was added to the sample, which was then vortex-mixed for 5 min. The tube was sealed and subjected to sonication for 20 min.

[8] = Residues of PRO and ALL in laying hens' tissues and eggs after 56-day dietary Bopu Powder (LC-QQQ-MS); details: mean ± sd; for concentration at 56 days: female, Roman Gray, chicken (laying hens), in vivo, n = 6, LOD 1 ng/g wet weight
Procedure: Throughout the experimental period, the hens were housed in cages under standard laboratory conditions, with ad libitum access to feed and water. Following a 7-day acclimatization period, standardized feeding regimens and routine health management procedures, including biosecurity protocols, were implemented. […] Three experimental groups were established: CN (control, no additive), BP (50 mg/kg additive), and BPX (500 mg/kg additive). The study employed a randomized design with 6 replicates per group and 18 hens per replicate. The feeding trial duration was 56 days.
Additionally, at the end of week 8, from each replicate group, one hen was randomly selected. A 10 mL blood sample was collected from the subcutaneous ulnar vein; 5 mL was transferred into an EDTA-K2 anticoagulant tube, gently mixed, and centrifuged at 3000× g for 10 min. The separated plasma was transferred into EP tubes (Eppendorf tubes) and stored at −20 °C for residue analysis.
Eggs: During weeks 4 and 8 of the trial, two eggs per replicate group, approximating the mean egg weight, were collected and stored at 4 °C until analysis.
Segments of jejunum, ileum, liver, ovary, oviduct, uterus, pectoral muscle, thigh muscle, gizzard, abdominal fat, and subcutaneous fat were individually wrapped in aluminum foil, flash-frozen in liquid nitrogen, and stored at −80 °C pending analysis.
Eggs: Two grams of homogenized whole egg liquid was transferred into a 50 mL centrifuge tube containing homogenization beads. Twenty microliters of the 1 mg/L internal standard (IS) working solution was precisely added, followed by vortex mixing for 30 s. Subsequently, 10 mL of acetonitrile was added and the mixture was vortex-mixed for 5 min to facilitate extraction. The sample was then centrifuged at 8000× g for 5 min. Five milliliters of the resulting supernatant was transferred to a ten-milliliter centrifuge tube, combined with three milliliters of n-hexane, and vortex-mixed for 1 min. After phase separation, the upper n-hexane layer was carefully removed using a rubber-bulb pipette. Then, 1 mL of the lower aqueous acetonitrile phase was collected, evaporated to dryness under a nitrogen stream, and reconstituted in 0.5 mL of acetonitrile with 30 s of vortex mixing. The final extract was filtered through a 0.22 μm organic solvent-compatible membrane prior to LC-MS/MS analysis. Only two quality control (QC) measures were implemented: parallel duplicate samples, and blank/carryover checks.
Tissues: Tissue samples stored at −80 °C were thawed to room temperature. Approximately 2 g of tissue was weighed into a 50 mL screw-cap centrifuge tube. Twenty microliters of freshly prepared 20 mg·L^−1 IS solution and 1 mL of physiological saline were added.

[9] = in vivo, iv, 1 mg/kg
Procedure: as §1, §2, §3, §4, §5

[10] = tested on: carbon tetrachloride, acetaminophen, and simvastatin-induced hepatotoxicity; design: method as in PMID 9782072; details: PRO 11–22 mg/kg body weight; cited from earlier work
[11] = rat, in vivo; cited from earlier work
[12] = BPX group: 500 mg/kg Bopu Powder in diet, 56 days, n = 6, LOD 1 ng/g wet weight

Compound: COc1ccc2c(c1OC)CN(C)CCc1cc3c(cc1C(=O)C2)OCO3 [ALL, allocryptopine]
- number of metabolites identified, including isomers [1]: 25
- number of key metabolites identified [2]: five
- residues in urine, feces, plasma, and various tissues ([3]; rats, following ALL administration): < 3 ng/g
- residues in eggs throughout ([4]; 400 mg/kg feed Bopu Powder, 7 days): undetectable
- residual levels 1 day after withdrawal ([4]; 2000 mg/kg feed Bopu Powder, 7 days): 8.61 µg/kg
- residues 7 days post-withdrawal ([4]; 2000 mg/kg feed Bopu Powder): residues persisted
- number of metabolites detected [5]: eight
- number of metabolites detected [6]: four
- number of metabolites detected in pooled plasma ([7]; intravenous 1 mg/kg bw, pooled plasma 5 to 120 min post-administration): seven
- number of metabolites identified in plasma and feces ([7]; intravenous 1 mg/kg·bw, blood 5–120 min, feces 48 h collection): 9
- residues in kidney ([8]; BP group: 50 mg/kg Bopu Powder in diet, 56 days, n = 6, LOD 1 ng/g wet weight): 6.59 ± 4.61 ng/g
- residues in eggs [8, 12]: 12.29 ng/g and 12.29 ± 4.69 ng/g
- residues in kidney [8, 12]: 7.92 ± 4.12 ng/g
- residues in liver [8, 12]: 56.14 ± 9.39 ng/g
- concentration at 56 days ([8]; 50 mg/kg, residues in kidney, BP group: 50 mg/kg Bopu Powder in diet): 6.59 ng/g
- concentration at 56 days ([8]; 500 mg/kg, residues in kidney, BPX group: 500 mg/kg Bopu Powder in diet): 7.92 ng/g
- concentration at 56 days ([8]; 500 mg/kg, residues in liver, BPX group: 500 mg/kg Bopu Powder in diet): 56.1 ng/g

Compound: protopine
- number of metabolites detected in fecal samples [9]: Eleven
- number of metabolites detected in pooled plasma [9]: two
- number of metabolites identified in plasma and feces [9]: 12
- hepatoprotective effect [10]: effectively counteracts carbon tetrachloride, acetaminophen, and simvastatin-induced hepatotoxicity
- time until concentrations fell below LOQ (10 ng/mL) [11]: ≤ 8 h
- highest residual level, liver at 48 h ([3]; rat, in vivo): 20.64 ng/g
- highest residual level, spleen at 24 h ([3]; rat, in vivo): 44.04 ng/g
- highest residue level, liver at 48 h (second statement) ([3]; rat, in vivo): 61.8 ng/g
- residue levels in other tissues (second statement) ([3]; rat, in vivo): below 6.5 ng/g
